# Source: patent US20070232694A1, “SKIN CLEANSER” (priority 2006, published 2007)
# Key:
# mycobacteria marinum = assay: Finger infection, patient case; format: in vivo, human; settings: after eleven days of antibiotics
# Description: Action against Mycobacteria: A person with four month long history of an infection on the posterior aspect of their right ring finger was treated. The infected areas were culture positive for mycobacteria marinum, with symptoms of infection resulting in a 4 cm long patchy zone of erythema, induration, and oozing from the wound. After failing two full courses of oral antibiotics, over the previous four months, the patient was given a third round of antibiotics, this time Clarythromycin, after their finger's condition had worsened.
# [1] = test system: ATCC 29213 (MSSA) and ATCC 43330 (MRSA); assay: Petri dish (Mueller-Hinton agar) drop test, zones of inhibition vs controls; format: cell-based, Staphylococcus aureus; settings: for order of anti-bacterial effectiveness: at a given concentration
# Description: Testing was conducted at a pathology laboratory certified for microbiology testing by a physician and a microbiologist. A double blind, randomized controlled experiment was conducted to evaluate the surfactant compounds against bacteria in Petri dishes.
# Bacterial strain: Two well characterized strains of methicillin-sensitive Staphylococcus aureus (MSSA) and methicillin-resistant Staphylococcus aureus (MRSA) were used. Specifically, experiments used ATCC 29213 (MSSA) and ATCC 43330 (MRSA), both beta-lactamase positive strains, which represent greater than 90% of the respective strains in the American population.
# Petri dish preparation: A sterile cotton swab (American Scientific Products, McGraw Park, Ill.) was dipped into the cultures and used to swab the entire surface of 150×15 mm Petri dishes containing 75 ml of standard Mueller-Hinton agar. Two Petri dishes were inoculated with ATCC 29213 (MSSA and two Petri dishes with ATCC 43330 (MRSA). One Petri dish of each group (MSSA and MRSA) was set aside as the controls. The other two Petri dishes (MSSA and MRSA) were divided up in quadrants, and each quadrant was labeled B, C, D or E.
# Cleanser compositions were prepared as follows: A surfactant solution containing about 10% by volume of sodium dodecylbenzenesulfonate was prepared. An aqueous stock solution containing 0.5% by volume sodium hypochlorite and 0.5% by volume abrasive (calcium carbonate and sodium carbonate) was prepared. The surfactant solution and stock solution were mixed in various ratios to produce four skin cleanser solutions having four different surfactant concentrations of 0.5%, 1%, 2% and 8%, by volume. The amount of sodium hypochlorite, calcium carbonate and sodium carbonate in each of the four skin cleanser solutions was less than 1% concentration by volume.
# Cleanser Testing: Four samples of the cleanser with the four different concentrations of the surfactant (0.5%, 1%, 2% and 8%) were placed into four separate, unmarked bottles. Each bottle was randomly labeled (B, C, D, or E), and the microbiologist conducting the study was unaware of any difference between the solutions.
# Application: Holding each bottle vertically, the microbiologist added a single drop from each bottle (B, C, D, or E) to the corresponding quadrant of the labeled Petri dish. All four Petri dishes were placed in an incubator overnight at 37 degrees Celsius, and examined 20 hours later. Petri dishes were compared to the corresponding controls, and zones of inhibition were characterized by the largest point of diameter of the circle or oval.
# Four cleanser compositions were prepared and tested in the manner described in Example 1, except that each cleanser contained a different anionic surfactant. […]
# Enterococcus = assay: Infected decubitus ulcer, patient case; format: in vivo, human; settings: on antibiotics, five days after admission
# Description: Action against Gram-positives such as Enterococcus: A person with long history of diabetes was admitted from their hospice care home to an acute care facility hospital secondary to an infected decubitus ulcer (bedsore). This patient's sacral ulcer tested positive from culture swab for Enterococcus, a common Gram-positive bacterium for infecting bedsores. Immediately upon admission, the patient was placed on antibiotics (ciprofloxacin). […] On day five, the treating physician directly cultured the wound again with two cotton swabs. Cotton swab #1, the control, was placed directly in the sealed container based on hospital protocol. Cotton swab #2 was placed into the sealed container, but one single vertical drop of a cleanser solution (prepared as described in Example 1). Both swabs were sent to the lab and a count of colony-forming units (CFUs) ordered.
Compound,order of anti-bacterial effectiveness [1],also measured
CC[C@H]1OC(=O)[C@H](C)[C@@H](O[C@H]2C[C@@](C)(OC)[C@@H](O)[C@H](C)O2)[C@H](C)[C@@H](O[C@@H]2O[C@H](C)C[C@H](N(C)C)[C@H]2O)[C@](C)(OC)C[C@@H](C)C(=O)[C@H](C)[C@@H](O)[C@]1(C)O [Clarythromycin],,symptoms of infection (mycobacteria marinum): no change in symptoms
CCCCCCCCCCCC(=O)N(C)CC(=O)[O-].[Na+] [N-lauroylsarcosine sodium salt],"sodium dodecylbenzenesulfonate >N-lauroylsarcosine sodium salt >sodium cholate, sodium deoxycholate",
OCl [Sodium hypochlorite],,effect on anti-bacterial action of sodium dodecylbenzenesulfonate ([1]; synergy of action): potentiated
O=C(O)c1cn(C2CC2)c2cc(N3CCNCC3)c(F)cc2c1=O [ciprofloxacin],,course of ulcer (Enterococcus): signs of worsening
C[C@H](CCC(=O)[O-])[C@H]1CC[C@H]2[C@@H]3[C@H](O)C[C@@H]4C[C@H](O)CC[C@]4(C)[C@H]3C[C@H](O)[C@]12C.[Na+] [sodium cholate],"sodium dodecylbenzenesulfonate >N-lauroylsarcosine sodium salt >sodium cholate, sodium deoxycholate",
sodium deoxycholate,"sodium dodecylbenzenesulfonate >N-lauroylsarcosine sodium salt >sodium cholate, sodium deoxycholate",
